In ChEMBL document CHEMBL4419175, “Compositions for treatment, diagnosis and prognosis of diseases” (2016):
Calls of active or inactive are those of the source. The calls are words filed in the database; no cut-off is given here.

Experiments:
[1] = Toxicity in mouse xenografted with human PC3 cells at 10 mg/kg dosed every second day starting from day 0 and ending on day 20 relative to control; format: organism-based; conditions: in vivo
PC-3 [2] = assay: Induction of apoptosis in human PC3 cells assessed as necrotic cells at 100 nM incubated for 48 hrs by Annexin-/7-AAD staining based FACS analysis (reference value: 0.32%); format: functional
PC-3 [3] = assay: Antitumor activity against human PC3 cells xenografted in mouse assessed as reduction in volume at 10 mg/kg dosed every second day starting from day 0 and ending on day 20 relative to control; format: functional, organism-based
LNCaP [4] = assay: Inhibition of PSA protein expression in human LNCAP cells at 50 nM incubated for 48 hrs by immunoblot analysis; format: functional, cell-based
PC-3 [5] = assay: Induction of apoptosis in human PC3 cells assessed as early apoptotic cells at 100 nM incubated for 48 hrs by Annexin-/7-AAD staining based FACS analysis (reference value: 2.53%); format: functional
LNCaP [6] = assay: Effect on CREB phosphorylation in human LNCAP cells at 50 nM incubated for 48 hrs by immunoblot analysis; format: functional, cell-based
LNCaP [7] = assay: Inhibition of PIP5K1alpha protein expression in human LNCAP cells assessed as reduction in AKT phosphorylation at Ser473 residues at 50 nM incubated for 48 hrs by immunoblot analysis relative to control; format: functional, cell-based
PC-3 [8] = assay: Induction of morphological changes in human PC3 cells assessed as changes in morphology at 100 nM incubated for 48 hrs by live cell imaging system based assay; format: functional
PC-3 [9] = assay: Inhibition of PIP5K1alpha protein expression in human PC3 cells assessed as reduction in AKT phosphorylation at Ser473 residues at 100 nM incubated for 48 hrs by immunoblot analysis relative to control; format: functional, cell-based
PC-3 [10] = assay: Induction of apoptosis in human PC3 cells assessed as late apoptotic cells at 100 nM incubated for 48 hrs by Annexin-/7-AAD staining based FACS analysis (reference value: 2.83%); format: functional
PC-3 [11] = assay: Induction of apoptosis in human PC3 cells assessed as viable cells at 100 nM incubated for 48 hrs by Annexin-/7-AAD staining based FACS analysis (reference value: 94.31%); format: functional; conditions: PC-3, 48 h, read-out: Activity
PC-3 [12] = assay: Induction of morphological changes in human PC3 cells assessed as reduction in cell size at 100 nM incubated for 48 hrs by live cell imaging system based assay; format: functional
LNCaP [13] = assay: Inhibition of AR protein expression in human LNCAP cells at 50 nM incubated for 48 hrs by immunoblot analysis; format: functional, cell-based
PC-3 [14] = assay: Inhibition of PIP5K1alpha protein expression in human PC3 cells at 50 nM incubated for 48 hrs by immunoblot analysis; format: functional, cell-based
PC-3 [15] = assay: Inhibition of PIP5K1alpha protein expression in human PC3 cells assessed as reduction in FAK phosphorylation incubated for 48 hrs by immunoblot analysis relative to control; format: functional, cell-based

CC(=O)O[C@@]12CO[C@@H]1C[C@H](O)[C@@]1(C)C(=O)[C@H](O)C3=C(C)[C@@H](OC(=O)[C@H](O)[C@@H](NC(=O)OC(C)(C)C)c4ccccc4)C[C@@](O)([C@@H](OC(=O)c4ccccc4)[C@H]21)C3(C)C [DOCETAXEL ANHYDROUS]
Activity [1]: Toxic | Activity (PC-3 [2]): 1.15% | Activity (PC-3 [3]): Active | inhibition (LNCaP [4]): inactive | Activity (PC-3 [5]): 2.73% | Activity (LNCaP [6]): inactive | inhibition (LNCaP [7]): inactive | Activity (PC-3 [8]): Active | inhibition (PC-3 [9]): inactive | Activity (PC-3 [10]): 6.36% | viability at 0.1 µM (PC-3 [11]): 89.8% | Activity (PC-3 [12]): Active | inhibition (LNCaP [13]): inactive | inhibition (PC-3 [14]): inactive | inhibition (PC-3 [15]): inactive
